Structures can show the parent of a compound that is named as a salt. Where two headings read alike, the source gives them in different places.
How the values were obtained:
[1] = test system: calcium-independent canine myocardial PLA2; assay: Inhibition of purified calcium-independent canine myocardial PLA2 (radiolabeled fatty acid release); assay type: biochemical; conditions: for IC50: purified enzyme, 6.4 mM EGTA, pH 7.0, 5 min preincubation 25° C., 5 min at 37° C., read-out: Canine Heart PLA2 IC50; for selectivity for calcium-independent canine myocardial PLA2 over the calcium-dependent PLA2 enzymes: versus calcium-dependent PLA2 enzymes
Procedure: This assay consists of determining the amount of radiolabeled fatty acid which is liberated from the radiolabeled phospholipid substrate by purified calcium-independent canine myocardial PLA2 in the presence of varying concentrations of the inhibitor. […] This concentration is defined as the IC50.
Appropriate controls were performed in the absence of test compound. Catalysis was initiated by injection of 1 μM radiolabeled substrate (1-O-(Z)-(1'-hexadecenyl)-2-[9,10-^3 H]-oleoyl-3-phosphorylcholine). After a 5 min incubation at 37° C., reaction products were extracted with n-butanol, separated by thin layer chromatography, and quantified by scintillation spectrometry.
(§1) Two greater than symbols (>>) indicate little or no inhibition at the highest concentration used. Activation of an enzyme is indicated by a +X% which gave that activation of X%.

sheep platelet PLA2 = assay: Calcium-dependent sheep platelet PLA2 assay; assay type: biochemical; conditions: 1 μM CaCl2, pH 7.2; > : inhibition observed but not enough for an IC50 at highest concentration
Text: (§2) Several other PLA2 assays were utilized in order to gain some measure of the selectivity of the inhibitors of calcium-independent myocardial PLA2. Specifically, three other calcium-dependent mammalian PLA2 assays are used: (1) sheep platelet PLA2, (2) human synovial fluid PLA2, and (3) porcine pancreatic PLA2. The PLA2 enzymes represent different groups of PLA2 enzymes. Myocardial PLA2, platelet PLA2, and secreted PLA2 enzymes (human synovial fluid PLA2 and porcine pancreatic PLA2) have very different calcium requirements, which may be typical of their respective classes.
Homogeneous sheep platelet cytosolic PLA2 was prepared as described by Loeb, L. A., and Gross, R. W. J. Biol. Chem. 261, 10467-10470 (1986). The purified calcium-dependent platelet PLA2 was preincubated in 70 mM Tris-Cl (pH 7.2) containing 1 μM CaCl2 and test compound for 5 min at 25° C. Catalysis was initiated by injection 1 μM radiolabeled substrate (1-O-(Z)-(1'-hexadecenyl)-2-[9,10-^3 H]-oleoyl-3-phosphorylcholine). After a 10 min incubation period at 37° C., reaction products were extracted with n-butanol, separated by thin layer chromatography, and quantified by scintillation spectrometry. PLA2 activity was compared in the presence and absence of test compound and the IC50 was determined.
as §1

[2] = molecular target: T1, human synovial fluid PLA2 (Homo sapiens, UniProt P14555); assay: Human synovial fluid PLA2 assay ([14C]-oleate labelled E. coli); assay type: biochemical; conditions: 5 mM CaCl2, pH 7.0; > : inhibition but not enough for an IC50; >> : little or no inhibition at highest concentration; read-out: HSF PLA2 IC50
T1 construct: Purified human synovial fluid PLA2; from tissue; host or cells: human synovial fluid; obtained from R. C; Franson (Medical College of Virginia)
T1 sequence (P14555 21-144): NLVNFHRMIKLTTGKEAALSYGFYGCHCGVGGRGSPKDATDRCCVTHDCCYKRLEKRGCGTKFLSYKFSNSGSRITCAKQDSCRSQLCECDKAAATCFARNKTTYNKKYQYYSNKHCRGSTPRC
Text: as §2
Purified human synovial fluid PLA2 (purified by the procedure of Fawzy, A. A. and Franson, R. C. Biophys. J. 49, 533a [1986]) was obtained from R. C. Franson (Medical College of Virginia, Richmond, Va.). PLA2 activity was measured by using [^14 C]-oleate labelled autoclaved E. coli as substrate as described by Franson, R. C., Patriarca, P., and Elsbach, P. J. Lipid Res. 15, 380-388 (1974). The assay was performed at 37° C. for 30 min in a final volume of 100 μL 50 mM Hepes buffer (pH 7.0) containing 150 mM NaCl, 5 mM CaCl2, and E. coli cells (corresponding to 10 nmol phospholipid). The test compound or control vehicle was preincubated with PLA2 for 5 min, followed by adding E. coli to initiate the reaction. The reaction was terminated by adding 2 mL tetrahydrofuran. The reaction product, [^14 C]-oleic acid, was isolated using a 1 mL Bond Elute--NH2 column and counted by liquid scintillation spectrometry.
as §1

porcine pancreatic PLA2 = molecular target: T2, porcine pancreatic PLA2 (Sus scrofa, UniProt P00592); assay: Porcine pancreatic PLA2 assay ([14C]-oleate labelled E. coli); assay type: biochemical; conditions: 10 mM CaCl2, pH 8.0; > : inhibition but not enough for an IC50; >> : little or no inhibition at highest concentration; read-out: Porcine Pancr. PLA2 IC50
T2 construct: purchased Sigma (St. Louis); host or cells: porcine pancreas
Text: as §2
Purified porcine pancreatic PLA2 was obtained from Sigma (St. Louis, Miss.). PLA2 activity was measured by using [^14 C]-oleate labelled autoclaved E. coli as described by Franson, Patriarca and Elsbach (referenced above). The assay was performed at 37° C. for 5 min in a final volume of 100 μL Tris-HCl buffer (100
mM, pH 8.0) containing 1 mM EDTA, 10 mM CaCl2, and E. coli (containing 10 nmol phospholipid). The test compound or control vehicle was preincubated with PLA2 for 5 min, followed by adding E. coli to initiate the reaction. The reaction was terminated by adding 2 mL tetrahydrofuran. The reaction product, [^14 C]-oleic acid, was isolated using a 1 mL Bond Elute--NH2 column and counted by liquid scintillation spectrometry.
as §1

HL-60 cells = assay: HL-60 cell assay for LTB4 and PGE2 production (calcium ionophore A23187 induced); assay type: cell-based; conditions: for IC50: Homo sapiens, HL-60, A23187 5×10^-6 M, > : inhibition but not enough for an IC50
Procedure: An additional whole cell assay was also performed. In this assay, HL-60 cells are induced with the calcium ionophore A23187 in the presence of varying amounts of inhibitor, and the amounts of the prostaglandin E2 (PGE2) and leukotriene B4 (LTB4) which form are measured. Calcium ionophore A23187 activates a calcium-dependent PLA2 which leads to the enhanced production of the arachidonic acid metabolites PGE2 and LTB4. The concentrations of inhibitor which decrease the production of PGE2 and LTB4 by 50% relative to controls are expressed as IC50 values.
HL-60 Cell Assay for LTB4 and PGE2 Production
HL-60 cells grown exponentially in culture were induced to differentiate into granulocytes by a four day incubation with 0.8% (v/v) N,N-dimethylformamide. Prior to assay, differentiated HL-60 cells were washed once with Hanks' balanced salt solution containing 0.35 mg/mL sodium bicarbonate and 10 mM Hepes, pH 7.3 (HBSS) and resuspended in HBSS at a 3×10^6 cells/mL concentration. DMSO or test compounds solubilized in DMSO were added at 1:100 dilution to 1.0 mL HL-60 cell suspensions (3×10^6 cells) and preincubated at 37° C. for 10 min in a shaking water bath. After an additional 5 min incubation with 5×10^-6 M calcium ionophore, A23187 (Calbiochem, La Jolla, Calif.), the cells were centrifuged at 12,800×g for 15 seconds and the supernatant (0.8 mL) removed and stored at -20° C. for LTB4 and PGE2 quantitation by radioimmunoassay (kits obtained from Amersham, United Kingdom and NEN Research Products, N. Billerica, Mass.).
as §1

rat neonatal myocytes = conditions: cited from earlier work
[3] = LTB4 production, read-out: HL-60 LTB4 IC50
[4] = PGE2 production, >> : little or no inhibition at highest concentration, read-out: HL-60 PGE2 IC50

T2 sequence (P00592 23-146): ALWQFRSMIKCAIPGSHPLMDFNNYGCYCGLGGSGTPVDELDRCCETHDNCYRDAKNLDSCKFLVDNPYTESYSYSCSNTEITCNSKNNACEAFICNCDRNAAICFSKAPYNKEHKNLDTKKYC

IC50 [1] | IC50 (sheep platelet PLA2) | IC50 [2] | IC50 (porcine pancreatic PLA2) | IC50 (HL-60 cells; [3]) | IC50 (HL-60 cells; [4]) | SMILES | potency against canine myocardial PLA2 (in words) [1] | also measured
0.031 µM | 100 µM | > 100 µM | > 100 µM | 11.7 µM | > 100 µM | O=C1O/C(=C/I)CCC1c1cccc2ccccc12 (centres unmarked) [Example 1, Tetrahydro-(E)-6-(iodomethylene)-3-(1-naphthalenyl)-2H-pyran-2-one] | most potent compound known against calcium-independent canine myocardial PLA2 | selectivity for calcium-independent canine myocardial PLA2 over the calcium-dependent PLA2 enzymes [1]: over 3200 -fold; HL-60 PGE2 activation (+X%) (HL-60 cells; PGE2 production): +300%
 | 38 µM | 53 µM | 17 µM | > 10 µM | > 10 µM | C#C/C=C1\CCC(c2cccc3ccccc23)C(=O)O1 (centres unmarked) [Example 2, Tetrahydro-3-(1-Naphthalenyl)-(E)-6-(prop-2-ynylidene)-2H-pyran-2-one] |  | 
0.19 µM |  |  |  |  |  | O=C1O/C(=C\I)CCC1c1cccc2ccccc12 (centres unmarked) [Example 4, Tetrahydro-(Z)-6-(iodomethylene)-3-(1-naphthalenyl)-2H-pyran-2-one] | potency drops off by almost an order of magnitude | 
0.25 µM | > 100 µM | > 100 µM | > 100 µM | 1.1 µM | > 100 µM | O=C1O/C(=C/Br)CCC1c1ccccc1 (centres unmarked) [Example 5, (E)-6-(Bromomethylene)tetrahydro-3-phenyl-2H-pyran-2-one] |  | selectivity for calcium-independent canine myocardial PLA2 over the calcium-dependent PLA2 enzymes [1]: over 400 -fold; HL-60 PGE2 activation (+X%) (HL-60 cells; PGE2 production): +63%
1.7 µM |  |  |  |  |  | O=C1O/C(=C/Br)CC1c1cccc2ccccc12 (centres unmarked) [Example 6, (E)-5-(Bromomethylene)tetrahydro-3-(1-naphthalenyl)-2(3H)-furanone] |  | 
22 µM |  |  |  |  |  | C=C1CCC(c2cccc3ccccc23)C(=O)O1 (centres unmarked) [Example 7, Tetrahydro-6-methylene-3-(1-naphthalenyl)-2H-pyran-2-one] | loss of more than two orders of magnitude in potency | 
21 µM |  |  |  |  |  | O=C1O/C(=C/Br)CCC1Oc1ccccc1 (centres unmarked) [Example 8, (E)-6-(Bromomethylene)tetrahydro-3-phenoxy-2H-pyran-2-one] |  | 
 |  |  |  |  |  | O=C1CCC/C(=C\Br)O1 [Example 9, (E)-6-(Bromomethylene)tetrahydro-2H-pyran-2-one] |  | Canine Heart PLA2 inhibition at 100 μM ([1]; 100 μM, printed in the IC50 column with footnote 4): 28%
75 µM |  |  |  |  |  | O=C1O/C(=C/Br)CCC1c1cccnc1 (centres unmarked) [Example 10, (E)-6-(Bromomethylene)tetrahydro-3-(3-pyridyl)-2H-pyran-2-one Hydrochloride] |  | 
 |  |  |  |  |  | COC1=CCC2=C(CCC3C2CC[C@@]2(C)C3CC[C@@H]2N(C)CCCN(C)C)C1 (some centres unmarked) [U26,384] |  | release of arachidonic acid, phospholipid degradation, sarcolemmal membrane defects and release of creatine kinase (rat neonatal myocytes; induced by iodoacetate): prevented the release of arachidonic acid, phospholipid degradation, sarcolemmal membrane defects and the release of creatine kinase
 |  |  |  |  |  | O=C(O)CI [iodoacetate] |  | ATP levels, release of arachidonic acid and morphological alterations of myocytes (rat neonatal myocytes; rat neonatal myocytes): lowers the levels of ATP which results in the release of arachidonic acid and morphological alterations of the myocytes

SMILES | IC50 [1] | IC50 (sheep platelet PLA2) | IC50 [2] | IC50 (porcine pancreatic PLA2) | IC50 (HL-60 cells; [3]) | IC50 (HL-60 cells; [4]) | potency against canine myocardial PLA2 (in words) [1] | also measured
O=C1O/C(=C/Br)CCC1c1cccc2ccccc12 (centres unmarked) [Example 3, (E)-6-(bromomethylene)tetrahydro-3-(1-naphthalenyl)-2H-pyran-2-one] | 0.14 µM | 72 µM | > 100 µM | > 100 µM | > 10 µM | > 10 µM | extremely potent inhibitors of canine myocardial PLA2 | selectivity for calcium-independent canine myocardial PLA2 over the calcium-dependent PLA2 enzymes [1]: over 500 -fold; HL-60 PGE2 activation (+X%) (HL-60 cells; PGE2 production): +91%
